Results on four molecules are retold here after patent US5780497A, “2-phenyl-1-[4-(amino-1-yl-alk-1-ynyl)-benzyl]-1H-indol-5-ols as estrogenic agents” (American Home Products Corporation, priority 1997, dated 1998).

Experiment [1] has as its target T1, estrogen receptor (Homo sapiens, UniProt P03372).
T1 sequence (P03372 1-595): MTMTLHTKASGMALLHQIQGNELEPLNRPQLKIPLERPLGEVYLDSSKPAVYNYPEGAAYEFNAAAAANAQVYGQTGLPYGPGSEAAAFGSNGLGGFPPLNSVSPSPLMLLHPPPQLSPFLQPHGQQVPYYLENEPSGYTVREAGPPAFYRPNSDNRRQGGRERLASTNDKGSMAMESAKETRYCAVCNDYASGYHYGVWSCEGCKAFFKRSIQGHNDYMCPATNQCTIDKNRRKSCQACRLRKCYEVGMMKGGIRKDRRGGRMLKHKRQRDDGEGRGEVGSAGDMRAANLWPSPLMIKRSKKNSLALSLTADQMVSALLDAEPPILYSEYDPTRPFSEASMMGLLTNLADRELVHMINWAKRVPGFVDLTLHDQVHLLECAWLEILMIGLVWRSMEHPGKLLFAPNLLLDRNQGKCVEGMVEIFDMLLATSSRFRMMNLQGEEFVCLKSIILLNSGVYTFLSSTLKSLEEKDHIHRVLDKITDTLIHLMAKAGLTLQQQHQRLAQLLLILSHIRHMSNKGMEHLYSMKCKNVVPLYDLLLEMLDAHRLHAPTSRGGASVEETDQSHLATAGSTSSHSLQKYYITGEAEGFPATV
Put plainly: In vitro estrogen receptor binding assay (competition with [3H]-17β-estradiol). More on the design: made in house; host or cells: CHO cells overexpressing the receptor (100,000 g cytosol).

Experiment [2] has as its target T1, estrogen receptor. Put plainly: 2X VIT ERE Transfection Assay (luciferase). The experiment is classed as cell-based. On the set-up: expressed in transfected cells; host or cells: CHO (Chinese Hamster Ovary) cells, stably transfected. To be noted: 24 h; read-out: % Activation.
For the next experiment, the system named is Ishikawa cells. Put plainly: Ishikawa Cell Alkaline Phosphatase Assay. It is filed as cell-based. The settings on record: Homo sapiens, 48 h, read-out: % Activation. How it is done:
Ishikawa Cell Alkaline Phosphatase Assay
Cell Maintenance and Treatment
Ishikawa cells were maintained in DMEM/F12 (50%:50%) containing phenol red+10% fetal bovine serum and the medium was supplemented with 2 mM Glutamax, 1% Pen/Strap and 1 mM sodium pyruvate. Five days prior to the beginning of each experiment (treatment of cells) the medium was changed to phenol red-free DMEM/F12+10% dextran coated charcoal stripped serum. On the day before treatment, cells were harvested using 0.5% trypsin/EDTA and plated at a density of 5×10^4 cells/well in 96-well tissue culture plates. […] Cells were treated for 48 h prior to assay. […] Sample population for at each dose was n=8.
Alkaline Phosnhatase Assay
At the end of 48 h the media is aspirated and cells are washed three times with phosphate buffered saline (PBS). 50 μL of lysis buffer (0.1M Tris-HCl, pH 9.8, 0.2% Triton X-100) is added to each well. Plates are placed at -80° C. for a minimum of 15 minutes. Plates are thawed at 37° C. followed by the addition of 150 μL of 0.1M Tris-HCl, pH 9.8, containing 4 mM para-nitrophenylphosphate (pNPP) to each well (final concentration, 3 mM pNPP).
Absorbance and slope calculations were made using the KineticCalc Application program (Bio-Tek Instruments, Inc., Winooski, Vt.). Results are expressed as the mean±S.D. of the rate of enzyme reaction (slope) averaged over the linear portion of the kinetic reaction curve (optical density readings every 5 minutes for 30 minutes absorbance reading).
The four listed in the following were used as as reference standards:
A description of these methods is described by Holinka, C. F., Hata, H., Kuramoto, H. and Gurpide, E. (1986) Effects of steroid hormones and antisteroids on alkaline phosphatase activity in human endometrial cancer cells (Ishikawa Line). Cancer Research, 46:2771-2774, and by Littlefield, B. A., Gurpide, E., Markiewicz, L., McKinley, B. and Hochberg, R. B. (1990) A simple and sensitive microtiter plate estrogen bioassay based on stimulation alkaline phosphatase in Ishikawa cells; Estrogen action of D5 adrenal steroids. Endocrinology, 6:2757-2762.

In experiment [3] the test system is bone. The settings on record: rat, in vivo; cited from earlier work.
The next experiment concerns uterine growth. To be noted: ovariectomized rat, compared with Tamoxifen; cited from earlier work.
In experiment [4] the test system is bone. To be noted: in humans; cited from earlier work.
The next experiment concerns uterus. To be noted: in vivo; cited from earlier work.

The structures appear in SMILES notation.

In the case of `Cc1c(-c2ccc(O)cc2)n(Cc2ccc(C#CCN(C)C)cc2)c2ccc(O)cc12` [Example 4, 2-(4-Hydroxy-phenyl)-3-methyl-1-[4-(3-N,N-dimethyl-1-yl-prop-1-ynyl)-benzyl]-1H-indol-5-ol], on estrogen receptor [1], the “RBA (Estrogen Receptor Affinity)” value is listed as 53. Besides, the Emax at 1 µM at estrogen receptor [2] was determined as 34%. Also, the Emax in the experiment with Ishikawa cells amounted to 34%.

`Cc1c(-c2ccc(O)cc2)n(Cc2ccc(C#CCN3CCCCC3)cc2)c2ccc(O)cc12` [Example 5, 2-(4-Hydroxy-phenyl)-3-methyl-1-[4-(3-piperidin-1-yl-prop-1-ynyl)-benzyl]-1H-indol-5-ol]: the “RBA (Estrogen Receptor Affinity)” value on estrogen receptor [1] is recorded as 23. The Emax at 1 µM on estrogen receptor [2] stood at 17%. Moreover, in the experiment with Ishikawa cells, the Emax stood at 27%.

Consider `O=C(c1ccc(OCCN2CCCCC2)cc1)c1c(-c2ccc(O)cc2)sc2cc(O)ccc12` [Raloxifene], for which, in the experiment on bone [3], the “ability to spare bone” value is recorded as “maintaining the ability to spare bone”. Besides, the “stimulation of uterine growth” value in the experiment on uterine growth is “to a lesser extent than Tamoxifen”. For the same molecule, the Emax in the experiment on Ishikawa cells came to 5%.

In the case of `CC/C(=C(\c1ccccc1)c1ccc(OCCN(C)C)cc1)c1ccccc1` [Tamoxifen], the “effect on the bone” value in the experiment with bone [4] is on record as “estrogen agonist-like effect on the bone”. Besides, in the experiment on uterus, the “agonism in the uterus” value is “partial agonist in the uterus”. In addition, the Emax with Ishikawa cells is 0%.
